Assay results taken from patent publication US9150603B2, “2′-cyano substituted nucleoside derivatives and methods of use thereof useful for the treatment of viral diseases” (priority 2011, dated 2015).

Key:
[1] = molecular target: T1, HCV NS5B RNA-dependent RNA polymerase (1b-BKΔ55) (Hepatitis C virus genotype 1b, UniProt P26663); experiment: Inhibition of HCV NS5B polymerase by nucleoside triphosphate analogs (radiolabeled nucleotide incorporation assay); assay type: biochemical
T1 construct: 5 nM NS5B (1b-BKΔ55) enzyme
T1 sequence (P26663 2420-2955 limits assumed, stated change not applied): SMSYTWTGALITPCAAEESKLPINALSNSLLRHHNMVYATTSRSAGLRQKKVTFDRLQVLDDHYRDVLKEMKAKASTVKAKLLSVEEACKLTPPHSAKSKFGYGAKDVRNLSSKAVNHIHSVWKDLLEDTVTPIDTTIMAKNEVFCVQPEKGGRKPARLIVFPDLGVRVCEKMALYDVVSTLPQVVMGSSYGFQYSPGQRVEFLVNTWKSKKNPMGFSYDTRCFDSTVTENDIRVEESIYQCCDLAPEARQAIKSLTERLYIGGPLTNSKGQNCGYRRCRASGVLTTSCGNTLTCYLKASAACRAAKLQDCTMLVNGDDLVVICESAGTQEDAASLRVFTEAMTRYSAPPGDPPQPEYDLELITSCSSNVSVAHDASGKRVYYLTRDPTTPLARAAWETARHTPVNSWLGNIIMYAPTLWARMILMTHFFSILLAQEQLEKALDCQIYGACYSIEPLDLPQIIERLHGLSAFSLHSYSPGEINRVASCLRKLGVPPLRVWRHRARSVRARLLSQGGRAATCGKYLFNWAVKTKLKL

replicon cells = experiment: Cytotoxicity in replicon cells (MTS assay); conditions: CC50, MTS assay, three days post dosing
replicon cells (1b-Con1) = experiment: Replicon activity assay (1b-Con1 replicon cells, real-time RT-PCR); assay type: cell-based, HCV; conditions: Hepatitis C virus, 72 h, three days post-dosing
HCV replicon cells (1b) = experiment: Cell-based HCV replicon assay (replicon RNA level by Taqman real time PCR); conditions: HCV 1b replicon, cells harvested on day 3
Protocol: To measure cell-based anti-HCV activity of selected compounds of the present invention, replicon cells were seeded at 5000 cells/well in 96-well collagen I-coated Nunc plates in the presence of the test compound. […]. Cells were harvested on day 3 by the addition of 1× cell lysis buffer (Ambion cat #8721). The replicon RNA level was measured using real time PCR (Taqman assay). The amplicon was located in 5B. The PCR primers were: 5B.2F, […] (SEQ ID. NO. 1); 5B.2R, […] (SEQ ID. NO. 2); the probe sequence was FAM-labeled […] (SEQ ID. NO. 3). GAPDH RNA was used as endogenous control and was amplified in the same reaction as NSSB (multiplex PCR) using primers and VIC-labeled probe recommended by the manufacturer (PE Applied Biosystem). The real-time RT-PCR reactions were run on ABI PRISM 7900HT Sequence Detection System using the following program: 48° C. for 30 minutes, 95° C. for 10 minutes, 40 cycles of 95° C. for 15 sec, 60° C. for 1 minute. The ACT values (CT5B−CTGAPDH) were plotted against the concentration of test compound and fitted to the sigmoid dose-response model using XLfit4 (MDL). […]; Alternatively, to quantitate the absolute amount of replicon RNA, a standard curve was established by including serially diluted T7 transcripts of replicon RNA in the Taqman assay. All Taqman reagents were from […] Applied Biosystems. Such an assay procedure was described in detail in e.g. Malcolm et al., Antimicrobial Agents and Chemotherapy 50: 1013-1020 (2006).

Replicon (1a) = experiment: microbe, parasite or virus in culture; assay type: cell-based, HCV; conditions: Hepatitis C virus; 1a replicon, marked (1a) in the cell

| SMILES | Cytotoxicity (replicon cells) [µM] | EC50 (replicon cells (1b-Con1)) [µM] | EC50 (HCV replicon cells (1b); Hepatitis C virus, 72 h) [µM] | also measured |
| --- | --- | --- | --- | --- |
| C[C@@]1(C#N)[C@H](O)[C@@H](COP(=O)(O)OP(=O)(O)OP(=O)(O)O)O[C@H]1n1ccc(N)nc1=O [Compound 29] |  |  |  | IC50 [1]: 0.5 µM |
| CC(C)COC(=O)[C@H](C)NP(=O)(OC[C@H]1O[C@@H](n2ccc(N)nc2=O)[C@](C)(C#N)[C@@H]1O)Oc1ccccc1 (stereo partly drawn) | 92 | 0.4 |  |  |
| COC(=O)[C@H](C)NP(=O)(OC[C@H]1O[C@@H](n2ccc(=O)[nH]c2=O)[C@](C)(C#N)[C@@H]1O)Oc1ccccc1 (stereo partly drawn) [Compound 14] |  |  | 11 |  |
| COc1nc(N)nc2c1ncn2[C@@H]1O[C@H](COP(=O)(N[C@@H](C)C(=O)OC(C)C)Oc2ccccc2OC(C)=O)[C@@H](O)[C@@]1(C)C#N (stereo partly drawn) | 15 | 8.9 |  |  |
| CC(C)OP1(=O)OC[C@H]2O[C@@H](n3ccc(N)nc3=O)[C@](C)(C#N)[C@@H]2O1 (stereo partly drawn) [Compound 24] |  |  |  | EC50 (HCV replicon cells (1b)): 7.9 µM |
| CCOC(=O)[C@H](C)NP(=O)(OC[C@H]1O[C@@H](n2cnc3c(OCC)nc(N)nc32)[C@](C)(C#N)[C@@H]1O)Oc1ccc(F)cc1 (stereo partly drawn) [Compound 11] |  |  | 17 |  |
| C[C@H](NP(=O)(OC[C@H]1O[C@@H](n2ccc(=O)[nH]c2=O)[C@](C)(C#N)[C@@H]1O)Oc1ccccc1)C(=O)OCC(C)(C)C (stereo partly drawn) [Compound 15] |  |  | 5 |  |
| CC(C)OP1(=O)OC[C@H]2O[C@@H](n3ccc(N)nc3=O)[C@](C)(C#N)[C@@H]2O1 (stereo partly drawn) [Compound 23] |  |  | 6.7 |  |
| CC(C)OC(=O)[C@H](C)NP(=O)(OC[C@H]1O[C@@H](n2ccc(N)nc2=O)[C@](C)(C#N)[C@@H]1O)Oc1ccccc1 (stereo partly drawn) [drawing 359] | >100 | 5.2 |  |  |
| CC(C)OP1(=O)OC[C@H]2O[C@@H](n3ccc(=O)[nH]c3=O)[C@](C)(C#N)[C@@H]2O1 (stereo partly drawn) | >100 | 1.3 |  |  |
| C[C@H](NP(=O)(OC[C@H]1O[C@@H](n2ccc(=O)[nH]c2=O)[C@](C)(C#N)[C@@H]1O)Oc1ccccc1)C(=O)OC1CCCCC1 (stereo partly drawn) |  | 2.4 |  |  |
| CC(C)OC(=O)[C@H](C)NP(=O)(OC[C@H]1O[C@@H](n2ccc(N)nc2=O)[C@](C)(C#N)[C@@H]1O)Oc1ccccc1 (stereo partly drawn) [drawing 363] | >100 |  |  | EC50 (Replicon (1a)): 0.9 µM |
| CCOc1nc(NC(C)=O)nc2c1ncn2[C@@H]1O[C@H](CO)[C@@H](O)[C@@]1(C)C#N [Compound 4] |  |  | 100 |  |
| CCOC(=O)[C@H](C)NP(=O)(OC[C@H]1O[C@@H](n2cnc3c(OCC)nc(N)nc32)[C@](C)(C#N)[C@@H]1O)Oc1ccccc1 (stereo partly drawn) [Compound 8] |  |  | 11.7 |  |
| CCOP1(=O)OC[C@H]2O[C@@H](n3ccc(N)nc3=O)[C@](C)(C#N)[C@@H]2O1 (stereo partly drawn) [Compound 25] |  |  | > 100 |  |
| CCCCOC(=O)[C@H](C)NP(=O)(OC[C@H]1O[C@@H](n2ccc(=O)[nH]c2=O)[C@](C)(C#N)[C@@H]1O)Oc1cccc2ccccc12 (stereo partly drawn) [Compound 18] |  |  | 1 |  |
| CCCOC(=O)[C@H](C)NP(=O)(OC[C@H]1O[C@@H](n2cnc3c(OC)nc(N)nc32)[C@](C)(C#N)[C@@H]1O)Oc1ccccc1 (stereo partly drawn) |  | 2.1 |  |  |
| CCCCOC(=O)[C@H](C)NP(=O)(OC[C@H]1O[C@@H](n2ccc(=O)[nH]c2=O)[C@](C)(C#N)[C@@H]1O)Oc1cccc2ccccc12 (stereo partly drawn) [drawing 354] | >100 | 2.7 |  |  |
| CC(C)COC(=O)[C@H](C)NP(=O)(OC[C@H]1O[C@@H](n2ccc(=O)[nH]c2=O)[C@](C)(C#N)[C@@H]1O)Oc1ccccc1 (stereo partly drawn) [drawing 360] | >100 | 1.3 |  |  |
| CCCCOC(=O)[C@H](C)NP(=O)(OC[C@H]1O[C@@H](n2cnc3c(OCC)nc(N)nc32)[C@](C)(C#N)[C@@H]1O)Oc1cccc2ccccc12 (stereo partly drawn) [Compound 7] |  |  | 1 |  |
| CCCCOC(=O)[C@H](C)NP(=O)(OC[C@H]1O[C@@H](n2cnc3c(OCC)nc(N)nc32)[C@](C)(C#N)[C@@H]1O)Oc1ccccc1 (stereo partly drawn) [Compound 13] |  |  | 1.5 |  |
| CCOc1nc(N)nc2c1ncn2[C@@H]1O[C@H](COP(=O)(N[C@@H](C)C(=O)OCC(C)(C)C)Oc2ccccc2)[C@@H](O)[C@@]1(C)C#N (stereo partly drawn) [Compound 9] |  |  | 0.7 |  |
| CCOC(=O)[C@H](C)NP(=O)(OC[C@H]1O[C@@H](n2cnc3c(OCC)nc(N)nc32)[C@](C)(C#N)[C@@H]1O)Oc1ccc(Cl)cc1 (stereo partly drawn) [Compound 12] |  |  | 1.7 |  |
